One data set addresses T1, ErbB-2 (Homo sapiens, UniProt P04626).
T1 construct: made in house
Briefly: ErbB-2 substrate phosphorylation enzyme assay (scintillation proximity). The format is biochemical. The settings on record: ErbB-2, pIC50 classes. How it is done:
Compounds of the present invention were tested for EGFR, ErbB-2, and ErbB-4 protein tyrosine kinase inhibitory activity in substrate phosphorylation assays using enzymes purified from a baculovirus expression system. Reagent production and assay methodology were conducted essentially as described (Brignola, P.S., et al, (2002) J. Biol. Chem. v. 277 in press).
The method measures the ability of the isolated enzyme to catalyse the transfer of the γ-phosphate from ATP onto tyrosine residues in a biotinylated synthetic peptide (biotin-Ahx-RAHEEIYHFFFAKKK-amide). Reactions were performed in 96-well polystyrene round-bottom plates in a final volume of 45 μL. Reaction mixtures contained 50 mM MOPS (pH 7.5), 2 mM MnCl2, 10 μM ATP, 0.125 μCi [γ-^33P] ATP per reaction, 2 μM peptide substrate, and I mM dithiothreitol. Reactions were initiated by adding 1 pmol (20 nM) per reaction of the indicated enzyme. The reaction was allowed to proceed for 15 minutes, terminated and quantified using a scintillation proximity assay procedure as described in McDonald, O. B., Antonsson, B., Arkinstal, S., Marshall, C. J., and Wood, E. R. (1999) Analytical Biochemistry, 268, 318-329.
Compounds under analysis were dissolved in Me2SO to 0.5 mM and serially diluted 1 to 3 with Me2SO through eleven columns of a 96 well plate. 1 μL of each concentration was transferred to the corresponding well of the assay plate. This creates a final compound concentration range from 0.00019 to 11.1 μM.
The data for dose responses were plotted as % Control calculated with the data reduction formula 100*(U1−C2)/(C1−C2) versus concentration of compound and fitted to the curve described by: y=((Vmax*x)/(K+x)) where Vmax is the upper asymptote and K is the IC50. Cellular assays: Methylene Blue Growth Inhibition Assay
A general note: Scintillation proximity formats need no separation of bound from free tracer.

A further data set relates to BT474 tumor cell line. Briefly: Methylene blue growth inhibition assay, BT474. The format is cell-based. The settings on record: Homo sapiens, BT-474, 72 h; BT474, 3 days, IC50 classes. How it is done: Human breast (BT474), head and neck (HN5) and gastric tumor (N87) cell lines and human foreskin Fibroblasts (HFF) were cultured in low glucose DMEM (Life Technologies 12320-032) containing 10% fetal bovine serum (FBS) at 37° C. in a humidified 10% CO2, 90% air incubator. The SV40 transformed human mammary epithelial cell line HB4a was transfected with either human H-ras cDNA (HB4a r4.2) or the human c-ErbB2 cDNA (HB4a c5.2). The HB4a clones were cultured in RPMI containing 10% FBS, insulin (5 μg/ml), hydrocortisone (5 μg/ml), supplemented with the selection agent hygromycin B (50μg/ml). Cells were harvested using trypsin/EDTA, counted using a haemocytometer, and plated in […] of the appropriate media, at the following densities, in a 96-well tissue culture plate (Falcon 3075): BT474 10,000 cells/well, HN5 3,000 cells/well, N87 10,000 cells/well, HB4a c5.2 3,000 cells/well, HB4a r4.2 3,000 cells/well, HFF 2500 cells/well. The next day, compounds were diluted in DMEM containing […] gentamicin, at twice the final required concentration, from 10 mM stock solutions in DMSO. […] of these dilutions were added to the […] of media currently on the cell plates. Medium containing 0.6% DMSO was added to control wells. Compounds diluted in DMEM were added to all cell lines, including the HB4a r4.2 and HB4a c5.2 cell lines. The final concentration of DMSO in all wells was 0.3%. Cells were incubated at 37° C., 10% CO2 for 3 days. Medium was removed by aspiration. Cell biomass was estimated by staining cells with 100 μl per well methylene blue (Sigma M9140, 0.5% in 50:50 ethanol:water), and incubation at room temperature for at least 30 minutes. Stain was removed, and the plates rinsed under a gentle stream of water, and air-dried. To release stain from the cells 100 μl of solubilization solution was added (1% N-lauroyl sarcosine, Sodium salt, Sigma L5125, in PBS), and plates were shaken gently for about 30 minutes. Optical density at 620 nm was measured on a microplate reader. Percent inhibition of cell growth was calculated relative to vehicle treated control wells. Concentration of compound that inhibits 50% of cell growth (IC50) was interpolated using nonlinear regression (Levenberg-Marquardt) and the equation, y=Vmax*(1−(x/(K+x)))+Y2, where “K” was equal to the IC50.
Table I illustrates the inhibitory activity of compounds of the present invention as IC50 values in μM against and the BT474 tumor cell line. Using HFF as a representative, human, normal cell line, values for cytotoxicity are supplied as IC50 values in micromolar.

Where a name gives a salt, the structure may show the parent alone. Bounds are passed on as bounds.

T1 sequence (P04626 691-1255 limits assumed): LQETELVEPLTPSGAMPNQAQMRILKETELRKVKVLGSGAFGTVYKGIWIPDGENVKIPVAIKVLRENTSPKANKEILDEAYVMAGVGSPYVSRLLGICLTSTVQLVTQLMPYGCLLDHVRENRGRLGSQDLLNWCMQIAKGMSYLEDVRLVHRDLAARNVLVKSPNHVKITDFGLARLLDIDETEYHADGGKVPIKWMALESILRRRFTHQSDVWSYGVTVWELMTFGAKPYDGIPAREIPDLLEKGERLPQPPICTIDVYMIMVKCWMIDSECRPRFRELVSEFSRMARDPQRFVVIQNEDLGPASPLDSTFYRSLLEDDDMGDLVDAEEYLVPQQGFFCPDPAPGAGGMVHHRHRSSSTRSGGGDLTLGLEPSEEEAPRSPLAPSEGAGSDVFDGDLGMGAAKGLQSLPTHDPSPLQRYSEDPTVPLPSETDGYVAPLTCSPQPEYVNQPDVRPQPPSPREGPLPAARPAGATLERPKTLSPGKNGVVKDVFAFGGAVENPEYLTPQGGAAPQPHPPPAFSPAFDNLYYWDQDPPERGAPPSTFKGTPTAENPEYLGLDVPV

The IC50 is the point on the concentration scale where inhibition reaches its midpoint. With `O=C(NCC#Cc1cc2ncnc(Nc3ccc(OCc4cccc(F)c4)c(Cl)c3)c2s1)c1c(Cl)cccc1Cl` [2,6-dichloro-N-{3-[4-({3-chloro-4-[(3-fluorobenzyl)oxy]phenyl}amino)thieno[3,2-d]pyrimidin-6-yl]prop-2-ynyl}benzamide], the concentration for half-maximal inhibition (IC50) against ErbB-2 fell in the range of 31.6 to 100 nM; in the data set with BT474 tumor cell line it was 1500 to 5000 nM.

A word on the melting point: it is the temperature of the solid-liquid transition. For the compound `Fc1cccc(COc2ccc(Nc3ncnc4cc(C#Cc5ncccn5)sc34)cc2Cl)c1` [Example 77, N-{3-chloro-4-[(3-fluorobenzyl)oxy]phenyl}-6-(pyrimidin-2-ylethynyl)thieno[3,2-d]pyrimidin-4-amine], the melting point was in the range of 236 to 240 °C. As for `Fc1cccc(COc2ccc(Nc3ncnc4cc(C#Cc5ccccn5)sc34)cc2Cl)c1` [Example 78, N-{3-chloro-4-[(3-fluorobenzyl)oxy]phenyl}-6-(pyridin-2-yiethynyl)thieno[3,2-d]pyrimidin-4-amine], the melting point was found to be 242 °C. Still for that read-out and setting: in the case of `Fc1cccc(COc2ccc(Nc3ncnc4sc(C#Cc5ccccn5)cc34)cc2Cl)c1` [Example 99, N-{3-chloro-4-[(3-fluorobenzyl)oxy]phenyl}-6-(pyridin-2-ylethynyl)thieno[2,3-d]pyrimidin-4-amine] it was 180 °C; in that of `Fc1cccc(COc2ccc(Nc3ncnc4sc(C#Cc5nccs5)cc34)cc2Cl)c1` [Example 101, N-{3-chloro-4-[(3-fluorobenzyl)oxy]phenyl}-6-(1,3-thiazol-2-ylethynyl)thieno[2,3-d]pyrimidin-4-amine], 204 °C. Consider `CS(=O)(=O)CCNCC#Cc1cc2ncnc(Nc3ccc(OCc4cccc(F)c4)c(Cl)c3)c2s1` [N-{3-Chloro-4-[(3-fluorobenzyl)oxy]phenyl}-6-(3-{[2-(methylsulfonyl)ethyl]amino}prop-1-ynyl)thieno[3,2-d]pyrimidin-4-amine hydrochloride], for which the IC50 was < 31.6 nM against ErbB-2 and < 1500 nM with BT474 tumor cell line.

As to `CN1CCN(CC(=O)NCC#Cc2cc3ncnc(Nc4ccc(OCc5cccc(F)c5)c(Cl)c4)c3s2)CC1` [N-{3-[4-({3-Chloro-4-[(3-fluorobenzyl)oxy]phenyl}amino)thieno[3,2-d]pyrimidin-6-yl]prop-2-ynyl}-2-(4-methylpiperazin-1-yl)acetamide], the 50% inhibitory concentration (IC50) is < 31.6 nM at ErbB-2 and < 1500 nM with BT474 tumor cell line.

With `CN(C)CCNC(=O)NCC#Cc1cc2c(Nc3ccc(OCc4cccc(F)c4)c(Cl)c3)ncnc2s1` [N-{3-[4-({3-chloro-4-[(3-fluorobenzyl)oxy]phenyl}amino)thieno[2,3-d]pyrimidin-6-yl]prop-2-ynyl)N′-[2-(dimethylamino)ethyl]urea], the IC50 at ErbB-2 is < 31.6 nM; in the data set on BT474 tumor cell line, < 1500 nM. As to `CS(=O)(=O)CCNC(=O)NCC#Cc1cc2c(Nc3ccc(OCc4cccc(F)c4)c(Cl)c3)ncnc2s1` [N-{3-[4-({3-chloro-4-[(3-fluorobenzyl)oxy]phenyl}amino)thieno[2,3-d]pyrimidin-6-yl]prop-2-ynyl}-N′-[2-(methylsulfonyl)ethyl]urea], the IC50 against ErbB-2 was < 31.6 nM; in the data set with BT474 tumor cell line, < 1500 nM. For `O=C(NCC#Cc1cc2ncnc(Nc3ccc(OCc4cccc(F)c4)c(Cl)c3)c2s1)c1ccc2[nH]ccc2c1` [N-{3-[4-({3-chloro-4-[(3-fluorobenzyl)oxy]phenyl}amino)thieno[3,2-d]pyrimidin-6-yl]prop-2-ynyl}-1H-indole-5-carboxamide], the figures for the 50% inhibitory concentration (IC50) at ErbB-2 and in the data set on BT474 tumor cell line were 31.6 to 100 nM and 1500 to 5000 nM, respectively. For `O=C(Cc1ccc(Cl)c(Cl)c1)NCC#Cc1cc2ncnc(Nc3ccc(OCc4cccc(F)c4)c(Cl)c3)c2s1` [N-{3-[4-({3-chloro-4-[(3-fluorobenzyl)oxy]phenyl}amino)thieno[3,2-d]pyrimidin-6-yl]prop-2-ynyl}-2-(3,4-dichlorophenyl)acetamide], the concentration for half-maximal inhibition (IC50) is > 100 nM against ErbB-2 and > 5000 nM in the data set with BT474 tumor cell line. Regarding `O=C(NCC#Cc1cc2ncnc(Nc3ccc(OCc4cccc(F)c4)c(Cl)c3)c2s1)c1csc(-c2ccncc2)n1` [N-{3-[4-({3-chloro-4-[(3-fluorobenzyl)oxy]phenyl}amino)thieno[3,2-d]pyrimidin-6-yl]prop-2-ynyl}-2-pyridin-4-yl-1,3-thiazole-4-carboxamide], the figures for the IC50 against ErbB-2 and in the data set on BT474 tumor cell line were 31.6 to 100 nM and 1500 to 5000 nM, respectively. In the case of `O=C(CCc1ccc(F)cc1)NCC#Cc1cc2ncnc(Nc3ccc(OCc4cccc(F)c4)c(Cl)c3)c2s1` [N-{3-[4-({3-chloro-4-[(3-fluorobenzyl)oxy]phenyl}amino)thieno[3,2-d]pyrimidin-6-yl]prop-2-ynyl}-3-(4-fluorophenyl)propanamide], the IC50 on ErbB-2 fell in the range of 31.6 to 100 nM; with BT474 tumor cell line, 1500 to 5000 nM.

The compound `Fc1cccc(COc2ccc(Nc3ncnc4sc(C#Cc5ncccn5)cc34)cc2Cl)c1` [N-{3-chloro-4-[(3-fluorobenzyl)oxy]phenyl)-6-(pyrimidin-2-ylethynyl)thieno[2,3-d]pyrimidin-4-amine] displayed a melting point of 225 °C. Further, at ErbB-2, the half-maximal inhibitory concentration (IC50) was 31.6 to 100 nM. For the same compound, the IC50 in the data set with BT474 tumor cell line fell in the range of 1500 to 5000 nM.

`CC(C)CN(CC#Cc1cc2ncnc(Nc3ccc(OCc4cccc(F)c4)c(Cl)c3)c2s1)CC(C)C` [N-{3-chloro-4-[(3-fluorobenzyl)oxy]phenyl}-6-[3-(diisobutylamino)prop-1-ynyl]thieno[3,2-d]pyrimidin-4-amine]: the concentration for half-maximal inhibition (IC50) was > 100 nM against ErbB-2 and > 5000 nM in the data set on BT474 tumor cell line.
